For 20 compounds, IC50 results are on record in patent US9249145B2, “Heterocyclic derivatives of pyrazol-4-yl-pyrrolo[2,3-d]pyrimidines as janus kinase inhibitors” (Incyte Holdings Corporation, priority 2009, dated 2016).

Molecules are shown by their SMILES. Where a name gives a salt, the structure may show the parent alone. Read-outs that look alike come from different tables or passages of the source. A value given as a limit tells only on which side of the number the result lay.

In experiment [1] the target is T1, human JAK1 (a.a. 837-1142) (Homo sapiens, UniProt P23458).
T1 construct: The catalytic domains of human JAK1 (a.a. 837-1142); His tag (N); made in house; host or cells: insect cells (baculovirus)
T1 sequence (P23458 849-1154): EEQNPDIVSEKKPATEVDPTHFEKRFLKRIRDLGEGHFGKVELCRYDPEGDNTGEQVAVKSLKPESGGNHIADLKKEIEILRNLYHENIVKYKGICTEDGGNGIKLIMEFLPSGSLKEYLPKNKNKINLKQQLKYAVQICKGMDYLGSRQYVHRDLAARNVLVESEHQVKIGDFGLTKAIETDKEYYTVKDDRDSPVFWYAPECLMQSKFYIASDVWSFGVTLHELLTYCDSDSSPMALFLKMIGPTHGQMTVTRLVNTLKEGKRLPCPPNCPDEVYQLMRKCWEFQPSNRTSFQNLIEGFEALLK
The experiment in a line: In vitro JAK kinase assay (HTRF, phosphorylation of biotinylated peptide), JAK1. The experiment is classed as biochemical. How it is done:
(§1) Compounds herein were tested for inhibitory activity of JAK targets according to the following in vitro assay described in Park et al., Analytical Biochemistry 1999, 269, 94-104. The catalytic domains of human JAK1 (a.a. 837-1142), Jak2 (a.a. 828-1132) and Jak3 (a.a. 781-1124) with an N-terminal His tag were expressed using baculovirus in insect cells and purified. The catalytic activity of JAK1, JAK2 or JAK3 was assayed by measuring the phosphorylation of a biotinylated peptide. The phosphorylated peptide was detected by homogenous time resolved fluorescence (HTRF). IC50s of compounds were measured for each kinase in the 40 microL reactions that contain the enzyme, ATP and 500 nM peptide in 50 mM Tris (pH 7.8) buffer with 100 mM NaCl, 5 mM DTT, and 0.1 mg/mL (0.01%) BSA. The ATP concentration in the reactions was 90 μM for Jak1, 30 μM for Jak2 and 3 μM for Jak3 for Km conditions. For the 1 mM IC50 measurements, ATP concentration in the reactions was 1 mM. Reactions were carried out at room temperature for 1 hr and then stopped with 20 μL 45 mM EDTA, 300 nM SA-APC, 6 nM Eu-Py20 in assay buffer (Perkin Elmer, Boston, Mass.). Binding to the Europium labeled antibody took place for 40 minutes and HTRF signal was measured on a Fusion plate reader (Perkin Elmer, Boston, Mass.). See Tables 1, 2, 3, and 4 for data related to compounds of the invention.

The next experiment addresses T2, Jak2 (a.a. 828-1132) (Homo sapiens, UniProt O60674).
T2 construct: Jak2 (a.a. 828-1132); His tag (N); made in house; host or cells: insect cells (baculovirus)
The experiment in a line: In vitro JAK kinase assay (HTRF, phosphorylation of biotinylated peptide), JAK2. The experiment is classed as biochemical. On the procedure: as §1

[2] abbreviates: 1 mM ATP, Examples 92-162, read-out: JAK1 IC50 (nM) @ 1 mM ATP.
Setting [3] is: 1 mM ATP, Examples 92-162, read-out: JAK2 IC50 (nM) @ 1 mM ATP.
Where [4] appears, read: 1 mM ATP, Examples 1-11, read-out: IC50 (nM) @ 1 mM ATP JAK1.
Where [5] appears, read: Km ATP (90 μM for Jak1), Examples 1-11, read-out: IC50 (nM) @ Km ATP JAK1.
Setting [6] is: 1 mM ATP, Examples 1-11, read-out: IC50 (nM) @ 1 mM ATP JAK2.
Where [7] appears, read: Km ATP (30 μM for Jak2), Examples 1-11, read-out: IC50 (nM) @ Km ATP JAK2.
Setting [8] is: 1 mM ATP, Examples 12-91, read-out: JAK1 IC50 (nM) @ 1 mM ATP.
Setting [9] is: 1 mM ATP, Examples 12-91, read-out: JAK2 IC50 (nM) @ 1 mM ATP.

T2 sequence (O60674 828-1132): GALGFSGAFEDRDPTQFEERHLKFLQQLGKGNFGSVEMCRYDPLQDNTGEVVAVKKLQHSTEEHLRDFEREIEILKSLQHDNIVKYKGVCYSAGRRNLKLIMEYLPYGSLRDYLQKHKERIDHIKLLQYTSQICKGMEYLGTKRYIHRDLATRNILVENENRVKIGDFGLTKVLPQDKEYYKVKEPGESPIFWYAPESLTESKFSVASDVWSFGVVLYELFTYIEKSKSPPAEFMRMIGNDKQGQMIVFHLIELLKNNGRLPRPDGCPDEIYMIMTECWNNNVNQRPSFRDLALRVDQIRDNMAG

For the compound `N#CCC(CN1CCN(C(=O)c2ccc(C#N)cc2F)CC1C(F)F)n1cc(-c2ncnc3[nH]ccc23)cn1` (single isomer, unassigned) [Example 159—peak 2, 4-{[4-{3-cyano-2-[4-(7H-pyrrolo[2,3-d]pyrimidin-4-yl)-1H-pyrazol-1-yl]propyl}-3-(difluoromethyl)piperazin-1-yl]carbonyl}-3-fluorobenzonitrile], the IC50 (in experiment [1] (setting [2]); on Jak2 (a.a. 828-1132) (setting [3])) was 50 to 100 nM in each case.
For the compound `N#CCC(CN1CCN(C(=O)c2ccc(C#N)cc2F)CC1C(F)F)n1cc(-c2ncnc3[nH]ccc23)cn1` (single isomer, unassigned) [Example 159—peak 3, 4-{[4-{3-cyano-2-[4-(7H-pyrrolo[2,3-d]pyrimidin-4-yl)-1H-pyrazol-1-yl]propyl}-3-(difluoromethyl)piperazin-1-yl]carbonyl}-3-fluorobenzonitrile], the half-inhibitory concentration (IC50) in experiment [1] (setting [2]) is less than 20 nM; at Jak2 (a.a. 828-1132) (setting [3]), 20 to 50 nM.
Regarding `CS(=O)(=O)N1CCN(CC(CC#N)n2cc(-c3ncnc4[nH]ccc34)cn2)CC1` (stereo not shown) [Example 1, 4-[4-(methylsulfonyl)piperazin-1-yl]-3-[4-(7H-pyrrolo[2,3-d]pyrimidin-4-yl)-1H-pyrazol-1-yl]butanenitrile], the IC50 in experiment [1] (setting [4]) is less than 10 nM; in experiment [1] (setting [5]), less than 10 nM; on Jak2 (a.a. 828-1132) (setting [6]) it was 10 to 20 nM; on Jak2 (a.a. 828-1132) (setting [7]) it was less than 10 nM.
`N#CCC(CN1CCN(C(=O)c2ccc(C#N)cc2)CC1)n1cc(-c2ncnc3[nH]ccc23)cn1` (stereo not shown) [Example 2, 4-[(4-{3-cyano-2-[4-(7H-pyrrolo[2,3-d]pyrimidin-4-yl)-1H-pyrazol-1-yl]propyl}piperazin-1-yl)carbonyl]benzonitrile]: the IC50 in experiment [1] (setting [4]) is less than 10 nM; in experiment [1] (setting [5]), less than 10 nM; at Jak2 (a.a. 828-1132) (setting [6]), more than 20 nM; on Jak2 (a.a. 828-1132) (setting [7]) it was 10 to 20 nM.
In the case of `N#CCC(CN1CCN(C(=O)c2cc(F)cc(F)c2)CC1)n1cc(-c2ncnc3[nH]ccc23)cn1` (stereo not shown) [Example 3, 4-[4-(3,5-difluorobenzoyl)piperazin-1-yl]-3-[4-(7H-pyrrolo[2,3-d]pyrimidin-4-yl)-1H-pyrazol-1-yl]butanenitrile], the IC50 in experiment [1] (setting [4]) was 10 to 20 nM; in experiment [1] (setting [5]), less than 10 nM; on Jak2 (a.a. 828-1132) (setting [6]), less than 10 nM; on Jak2 (a.a. 828-1132) (setting [7]) it was less than 10 nM.
Take `Cn1ccc(S(=O)(=O)N2CCN(CC(CC#N)n3cc(-c4ncnc5[nH]ccc45)cn3)CC2)n1` (stereo not shown) [Example 4, 4-{4-[(1-methyl-1H-pyrazol-3-yl)sulfonyl]piperazin-1-yl}-3-[4-(7H-pyrrolo[2,3-d]pyrimidin-4-yl)-1H-pyrazol-1-yl]butanenitrile]: the 50% inhibitory concentration (IC50) (in experiment [1] (setting [4]); in experiment [1] (setting [5]); at Jak2 (a.a. 828-1132) (setting [6]); on Jak2 (a.a. 828-1132) (setting [7])) was less than 10 nM each time.
For the compound `N#CCC(CC1CCN(S(=O)(=O)C2CC2)CC1)n1cc(-c2ncnc3[nH]ccc23)cn1` (stereo not shown) [Example 5, 4-[1-(cyclopropylsulfonyl)piperidin-4-yl]-3-[4-(7H-pyrrolo[2,3-d]pyrimidin-4-yl)-1H-pyrazol-1-yl]butanenitrile], the concentration for half-maximal inhibition (IC50) (in experiment [1] (setting [5]); on Jak2 (a.a. 828-1132) (setting [6]); on Jak2 (a.a. 828-1132) (setting [7])) was less than 10 nM in each case.
Regarding `N#CCC(CC1CCN(C(=O)c2ccc(F)cc2F)CC1)n1cc(-c2ncnc3[nH]ccc23)cn1` (stereo not shown) [Example 6, 4-[1-(2,4-difluorobenzoyl)piperidin-4-yl]-3-[4-(7H-pyrrolo[2,3-d]pyrimidin-4-yl)-1H-pyrazol-1-yl]butanenitrile], the IC50 (in experiment [1] (setting [5]); at Jak2 (a.a. 828-1132) (setting [7])) was less than 10 nM in each case.
As for `Cn1ccc(S(=O)(=O)N2CCC(CC(CC#N)n3cc(-c4ncnc5[nH]ccc45)cn3)CC2)n1` (stereo not shown) [Example 7, 4-{1-[(1-methyl-1H-pyrazol-3-yl)sulfonyl]piperidin-4-yl}-3-[4-(7H-pyrrolo[2,3-d]pyrimidin-4-yl)-1H-pyrazol-1-yl]butanenitrile], the half-maximal inhibitory concentration (IC50) (in experiment [1] (setting [4]); in experiment [1] (setting [5]); on Jak2 (a.a. 828-1132) (setting [6]); at Jak2 (a.a. 828-1132) (setting [7])) was less than 10 nM throughout.
Take `N#CCC(CC1CCN(C(=O)c2ccc(F)cc2)CC1)n1cc(-c2ncnc3[nH]ccc23)cn1` (stereo not shown) [Example 8, 4-[1-(4-fluorobenzoyl)piperidin-4-yl]-3-[4-(7H-pyrrolo[2,3-d]pyrimidin-4-yl)-1H-pyrazol-1-yl]butanenitrile]: the IC50 (in experiment [1] (setting [5]); on Jak2 (a.a. 828-1132) (setting [6]); at Jak2 (a.a. 828-1132) (setting [7])) was less than 10 nM in each case.
Consider `CC(CN1CCN(S(=O)(=O)c2ccn(C)n2)CC1)n1cc(-c2ncnc3[nH]ccc23)cn1` (stereo not shown) [Example 9, 4-[1-(1-methyl-2-{4-[(1-methyl-1H-pyrazol-3-yl)sulfonyl]piperazin-1-yl}ethyl)-1H-pyrazol-4-yl]-7H-pyrrolo[2,3-d]pyrimidine, phosphoric acid salt], for which the IC50 was less than 10 nM in experiment [1] (setting [4]) and more than 20 nM at Jak2 (a.a. 828-1132) (setting [6]).
For `CC(CN1CCN(S(=O)(=O)c2ccn(C)n2)CC1)n1cc(-c2ncnc3[nH]ccc23)cn1` (stereo not shown) [Example 11, 4-[1-(1-methyl-2-{4-[(1-methyl-1H-pyrazol-3-yl)sulfonyl]piperazin-1-yl}ethyl)-1H-pyrazol-4-yl]-7H-pyrrolo[2,3-d]pyrimidine bis(phosphate) Salt], the half-inhibitory concentration (IC50) is less than 10 nM in experiment [1] (setting [4]) and more than 20 nM on Jak2 (a.a. 828-1132) (setting [6]).
Regarding `N#CCC(CN1CCN(C(=O)c2ccc(C(F)F)cc2F)CC1)n1cc(-c2ncnc3[nH]ccc23)cn1` (stereo not shown) [Example 14, 4-{4-[4-(difluoromethyl)-2-fluorobenzoyl]piperazin-1-yl}-3-[4-(7H-pyrrolo[2,3-d]pyrimidin-4-yl)-1H-pyrazol-1-yl]butanenitrile], the results for the IC50 (in experiment [1] (setting [8]); at Jak2 (a.a. 828-1132) (setting [9])) were less than 10 nM and 10 to 50 nM, respectively.
`N#CCC(CN1CCN(C(=O)c2c(F)cc(C#N)cc2F)CC1)n1cc(-c2ncnc3[nH]ccc23)cn1` (stereo not shown) [Example 15, 4-[(4-{3-cyano-2-[4-(7H-pyrrolo[2,3-d]pyrimidin-4-yl)-1H-pyrazol-1-yl]propyl}piperazin-1-yl)carbonyl]-3,5-difluorobenzonitrile phosphate Salt]: the IC50 in experiment [1] (setting [8]) is less than 10 nM; on Jak2 (a.a. 828-1132) (setting [9]), 50 to 100 nM.
For `N#CCC(CN1CCN(C(=O)c2ncc(Cl)cc2F)CC1)n1cc(-c2ncnc3[nH]ccc23)cn1` (stereo not shown) [Example 16, 4-{4-[(5-chloro-3-fluoropyridin-2-yl)carbonyl]piperazin-1-yl}-3-[4-(7H-pyrrolo[2,3-d]pyrimidin-4-yl)-1H-pyrazol-1-yl]butanenitrile], in that order: less than 10 nM and less than 10 nM.
With `N#CCC(CN1CCN(C(=O)c2ncc(C#N)cc2F)CC1)n1cc(-c2ncnc3[nH]ccc23)cn1` (stereo not shown) [Example 17, 6-[(4-{3-cyano-2-[4-(7H-pyrrolo[2,3-d]pyrimidin-4-yl)-1H-pyrazol-1-yl]propyl}piperazin-1-yl)carbonyl]-5-fluoronicotinonitrile], the half-maximal inhibitory concentration (IC50) is 10 to 50 nM in experiment [1] (setting [8]) and more than 100 nM on Jak2 (a.a. 828-1132) (setting [9]).
Consider `COc1ccc(C(=O)N2CCN(CC(CC#N)n3cc(-c4ncnc5[nH]ccc45)cn3)CC2)cc1F` (stereo not shown) [Example 18, 4-[4-(3-fluoro-4-methoxybenzoyl)piperazin-1-yl]-3-[4-(7H-pyrrolo[2,3-d]pyrimidin-4-yl)-1H-pyrazol-1-yl]butanenitrile phosphate Salt], for which the values for the IC50 (in experiment [1] (setting [8]); at Jak2 (a.a. 828-1132) (setting [9])) were 10 to 50 nM and 50 to 100 nM, respectively.
For `N#CCC(CN1CCN(C(=O)c2ncc(C(F)(F)F)cc2F)CC1)n1cc(-c2ncnc3[nH]ccc23)cn1` (stereo not shown) [Example 19, 4-(4-{[3-fluoro-5-(trifluoromethyl)pyridin-2-yl]carbonyl}piperazin-1-yl)-3-[4-(7H-pyrrolo[2,3-d]pyrimidin-4-yl)-1H-pyrazol-1-yl]butanenitrile], in that order: 10 to 50 nM and more than 100 nM.
Taken in the same sequence, the figures for `N#CCC(CN1CCN(C(=O)c2ccc(C#N)cn2)CC1)n1cc(-c2ncnc3[nH]ccc23)cn1` (stereo not shown) [Example 20, 6-[(4-{3-cyano-2-[4-(7H-pyrrolo[2,3-d]pyrimidin-4-yl)-1H-pyrazol-1-yl]propyl}piperazin-1-yl)carbonyl]nicotinonitrile] were 10 to 50 nM and more than 100 nM.
For `N#CCC(CN1CCN(C(=O)c2ccc(F)cn2)CC1)n1cc(-c2ncnc3[nH]ccc23)cn1` (stereo not shown) [Example 21, 4-{4-[(5-fluoropyridin-2-yl)carbonyl]piperazin-1-yl}-3-[4-(7H-pyrrolo[2,3-d]pyrimidin-4-yl)-1H-pyrazol-1-yl]butanenitrile trifluoroacetate Salt], in that order: 10 to 50 nM and 50 to 100 nM.
